Patent publication US20260207551A1, “PHOSPHOGLICERATE DEHYDROGENASE INHIBITORS FOR THE TREATMENT OF FIBROSIS” (CHIESI FARMACEUTICI S.P.A., priority 2022, published 2026)

Assays:
[1] = tested on: synthesis of 13C3-serine; assay: PK/PD model: in vivo [13C6] glucose tracing, inhibition of 13C3-serine synthesis; parameters: species or system mouse male (C57BL/6J); details: 1 h; for decrease of brain serine concentration: not statistically significant
Experimental: As PHGDH catalyzes the rate-limiting step of glucose-derived serine synthesis, a pharmacokinetic/pharmacodynamic (PK/PD) experiment aimed to assess the inhibition of the synthesis of ^13C3-serine after oral administration of ^13C6-glucose was performed in mouse male (C57BL/6J).
Animals were fasted overnight before treatment. Following 0.5 h from administration of either Compound 19 at dose of 300 mg/kg or vehicle (0.5% Tween 80, 0.5% Methylcellulose in H2O), ^13C6-glucose was administered by oral gavage (2 g/kg, Merck Life Science Srl). Blood, lung, and brain samples were collected at 1 h, 6.5 h and 24.5 h after treatment with Compound 19 or vehicle.
The tissue concentration of ^13C3-serine was determined by a liquid chromatography-tandem mass spectrometry (LC/MS/MS) assay. GraphPad Prism (version 8.1.2) was used for drawing graphs and for statistical analysis. Plasma or tissue homogenate samples (tissues were homogenized with a water/acetonitrile 50/50 mixture) were extracted with 3 volumes of acetonitrile. Supernanatant was injected into HPLC system (Agilent 1260 Quaternary Pump equipped with an Agilent 1200 High Performance Autosampler SL; Agilent), using a Kinetex EVO C18 analytical column (100 A, 50×2.1 mm, 2.6 μm; Phenomenex) for the analysis of Compound 19 or an InfinityLab Poroshell 120 Hilic-Z (50×2.1 mm 2.7 μm; Agilent) for the analysis of ^13C3-serine. The mobile phases consisted of 0.1% formic acid in water (solvent A) and 0.1% formic acid in acetonitrile (solvent B); chromatographic separation was performed with gradient elution method (see conditions below): • Compound 19 (0.0-0.5 min, 10% B; 0.5-3.0 min, gradient to 90% B; 3.0-5.0 min. 90% B; 5.0-6.0 min, gradient to 10% B; 6.0-10.0 min, 10% B—flow rate: 0.4 mL/min). • S^13C3-serine (0.0-0.5 min, 95% B; 0.5-4.0 min, gradient to 60% B; 4.0-5.0 min, 60% B; 5.0-6.0 min, gradient to 95% B; 6.0-10.0 min, 95% B—flow rate: 0.4 mL/min).
Mass spectrometric analysis was performed on a linear ion trap triple quadrupole mass spectrometer (4000 Q TRAP; AB SCIEX) equipped with a turbo spray ion source; mass spectrometer was operated in positive ion mode and quantification was achieved by multiple reaction monitoring (MRM) mode. Peak integration was performed using Analyst (version 1.6.2.). GraphPad Prism (version 8.1.2) was used for drawing graphs and for statistical analysis.
After 0.5 h from administration of Compound 19a at dose of 3, 10, 30, 100 and 300 mg/kg po, Compound 19 at dose of 300 mg/kg po or vehicle po (0.5% Tween 80, 0.5% Methylcellulose in H2O), mice received ^13C6-glucose by oral gavage (2 g/kg, Merck Life Science Srl). […] Blood was withdrawn by cardiac puncture and collected in heparin tubes.

[2] = tested on: bleomycin-induced pulmonary fibrosis; assay: Bleomycin-induced pulmonary fibrosis in male mice (Example 6); format: in vivo, Male C57BL6/J mice
Experimental: The effect of Compound 19a was evaluated in a murine model (C57BL/6J mouse strain) in which fibrosis was induced by a double oropharyngeal (OA) instillation of bleomycin. The Compound 19a was administered under therapeutic regimen for 14 days, starting the treatments at day 7 from the first instillation of Bleomycin OA up to the day 21, considered the endpoint for this model.
All mice were maintained under pathogen-free conditions and had free access to food and water.
Lung injury was induced by double OA instillation of bleomycin hydrochloride (BLM, BAXTER, Deerfield, IL, USA) at day 0 and day 4 at the dose of 0.03 U/mouse in […] of saline solution (NaCl 0.9%). Control animals received double OA instillation of […] of saline solution.
The Compound 19a was orally administered twice daily at the three doses of 3, 30 and 100 mg/Kg 10 mL/Kg, using as vehicle for dissolution the 0.5% Tween 80, 0.5% Methylcellulose in H2O.
On day 21, the respiratory system mechanics were measured using the FlexiVent System (SCIREQ Inc., Montreal Qc, Canada) (Vanoirbeek et al., 2010).
Briefly, mice were anesthetized by intraperitoneal injection of ketamine (Anesketin®, Dechra Inc., Handelsweg, NL) and xylazine (Xilagesic®, Calier Inc., Barcelona, ES) solution (100 mg/Kg and 10 mg/Kg, respectively). Once anesthesia was achieved, to analyze forced vital capacity (FVC), anesthetized mice were tracheotomized using an 18-gauge metal cannula, connected via an endotracheal cannula to the FlexiVent and ventilated at a respiratory rate of 150 breaths/min and tidal volume of 10 mL/Kg against a positive end-expiratory pressure of 3 cm H2O to achieve a mean lung volume close to that during spontaneous breathing. To prevent spontaneous breathing mice also received pancuronium bromide at 1 mg/Kg intraperitoneally. FlexiVent software version 8.1 was used to perform the perturbations.
Immediately after the in-life evaluation, plasma and bronchoalveolar lavage fluid (BALF) samples were collected.
First, blood was collected by cardiac puncture, and plasma was obtained after centrifugation of blood at 2000×g and 4° C. for 10 minutes.
Subsequently, the lungs were gently rinsed three times using a tracheal cannula with 0.6 mL of clear BAL solution. The obtained BALF was centrifuged at 1000×g and 4° C. for 10 minutes. The cell-free supernatant was used for biomarkers quantitative determination.
The following biomarkers were determined in BALF and plasma samples by commercially available ELISA kits: Collagen I (evaluated in BALF), an index of collagen accumulation; matrix metallopeptidase 7 (MMP-7, evaluated in BALF), indicator of aberrant fibrogenesis and ECM remodeling and surfactant protein D (SP-D, evaluated in PLASMA), marker of alveolar epithelial cell damage and dysfunction.
Lastly, the entire lungs were resected, fixed with formalin and embedded in paraffin. Sections were stained with Masson's trichrome to assess the grade and severity of fibrosis and collagen deposition.

[3] = tested on: Collagen I; assay: Fibroblast to myofibroblast transition (FMT) in vitro assay: Collagen I detection; format: cell-based; details: Homo sapiens, NHLF, 72 h, read-out: Collagen-I pIC50 (converted)
[4] = tested on: αSMA; assay: Phenotypic assay: high content aSMA staining in NHLF cells; format: cell-based, Human; details: NHLF, 72 h incubation
Experimental: NHLF cells (Lonza #CC2512) were seeded as 2000 cells/well in 384-well plates in MEM medium w/o serine and glycine (Sigma #M2279)+1% pen/strep+5 mM L-glutamine +10% FBS and incubated overnight at 37° C., 5% CO2.
The next day, cells were washed with PBS and starvation MEM medium w/o serine and glycine (0% FBS) was added and cells were incubated overnight at 37° C., 5% CO2. The day after, cells were pre-incubated with compounds or vehicle (0.3% DMSO) for 1 h. Compounds were tested at 9 consecutive 3-fold dilutions starting from 30 μM. Each compound was tested in duplicate. Cells were further incubated for 72 h at 37° C., 5% CO2, 95% humidity. After 72 h of incubation, αSMA expression was quantified using immunostaining: • Fixation in 4% paraformaldehyde, • Blocking with 3% BSA, 2% FBS, 0.2% Triton-X in PBS, • Primary ab. anti-αSMA (AbCam #ab7817) diluted 500× in blocking buffer • Anti-mouse secondary ab. AF488 (ThermoFisher #A11029) • % of αSMA positive cells was determined by High Content Imaging (Molecular Device), data analysis was performed using MetaXpress software (Molecular Devices) and % of αSMA positive was further used to calculate % of inhibition for tested compounds. Total cell number was determined by Hoechst staining and % of viability over TGFβ stimulated controls was calculated.

[5] = Compound 19a 100 mg/Kg bid, Nintedanib esylate 50 mg/Kg bid

Q: With CC(C)C(C(=O)O)c1ccc(C2(NC(=O)c3cc4c(Cl)c(Cl)ccc4n3C)CCOC2)cc1 (racemic) [Compound 19a, Diasteroisomer 2 of (±)-2-(4-(3-(4,5-Dichloro-1-methyl-1H-indole-2-carboxamido)tetrahydro-furan-3-yl)phenyl)-3-methylbutanoic acid] as the compound, how does the “decrease of brain serine concentration” value ([1]; 100 mg/kg po) read?
A: The value was 12%.

Q: And the “decrease of brain serine concentration” value ([1]; 300 mg/kg po)?
A: The value was 30%.

Q: And the “ED80 (inhibition of labelled serine)” value ([1]; plasma and lung, both tissues, po, estimated)?
A: Its value is “around 30 mg/kg”.

Q: And the “fibrotic tissue quantification by automated analysis (FIG. 19B)” value ([2]; 100 mg/Kg)?
A: The value was “effect comparable to Nintedanib”.

Q: And the “reduction of Collagen I in BALF” value [2, 5]?
A: Its value is 52%.

Q: What about the “reduction of MMP-7 in BALF” value [2, 5] of the same compound?
A: The value was over 100%.

Q: What about the “reduction of SP-D levels in plasma” value [2, 5] of the same compound?
A: The value was 74%.

Q: What about the “improvement of FVC decline” value ([2]; Compound 19a 100 mg/kg bid, Nintedanib esylate 50 mg/Kg bid, vs BLM/vehicle) of the same compound?
A: Its value is 77%.

Q: And the “reduction of Ashcroft score” value ([2]; day 21, dose not stated)?
A: Its value is 56%.

Q: And the IC50 [3]?
A: Its IC50 is 126 nM.

Q: And the “aSMA pIC50” value [4]?
A: Its value is 6.6.
